{"source": "patent US20200030265A1", "about": "“ANTI[…] AND USES THEREOF” (CSP PHARMA, INC., priority 2017, published 2020)", "origin": "cited, not measured here", "system": "ASDs mouse model", "details": "includes core social deficits, sensorimotor coordination, Purkinje cell loss, P2Y2 and P2X7 expression (Naviaux et al. 2013)"}
{"smiles": "Cc1ccc(C(=O)Nc2ccc(S(=O)(=O)O)c3cc(S(=O)(=O)O)cc(S(=O)(=O)O)c23)cc1NC(=O)c1cccc(NC(=O)Nc2cccc(C(=O)Nc3cc(C(=O)Nc4ccc(S(=O)(=O)O)c5cc(S(=O)(=O)O)cc(S(=O)(=O)O)c45)ccc3C)c2)c1", "note": "[suramin, Suramin]", "values": [{"measurement": "multisystem abnormalities that defined the ASD-like phenotype corrected", "result": 16}]}
